Patent publication US20180000085A1, “USE OF PICOLINAMIDE COMPOUNDS WITH FUNGICIDAL ACTIVITY” (DOW AGROSCIENCES LLC, priority 2014, published 2018)

Tests used:
Puccinia triticina = experiment: Wheat brown rust (PUCCRT) disease control on wheat seedlings; assay type: in vivo; set-up: key to PUCCRT 3DC, HV activity at 100 ppm (% control rating) / PUCCRT disease control, 3DC / PUCCRT 1DP disease control rating, HV activity / PUCCRT 3DC disease control rating, HV activity / PUCCRT 3DC, LV activity at 125.1 g/H (% Control rating) / PUCCRT 1DP, LV activity at 125.1 g/H (% Control rating) / PUCCRT 3DC disease control rating, LV activity at 125.1 g/H / PUCCRT 1DP disease control rating, LV activity at 125.1 g/H / PUCCRT 3DC disease control rating, HV activity at 100 ppm / PUCCRT 1DP disease control rating, HV activity at 100 ppm / HV activity at 100 ppm PUCCRT 3DC (disease control rating) / LV activity at 125.1 g/H PUCCRT 1DP (disease control rating) / LV activity at 125.1 g/H PUCCRT 3DC (disease control rating): A: > 80; B: ≤ 80; C: Not Tested; D: No Activity Observed in the Reported Assay; conditions: high volume application, 100 ppm; for PUCCRT 1DP disease control rating, HV activity at 100 ppm: 1 day protectant; for PUCCRT 3DC disease control rating, HV activity at 100 ppm: 3 day curative
Zymoseptoria tritici = experiment: Leaf blotch of wheat (SEPTTR) disease control on wheat seedlings; assay type: in vivo; set-up: key to SEPTTR 1DP, HV activity at 100 ppm (% control rating) / SEPTTR 3DC, HV activity at 100 ppm (% control rating) / SEPTTR disease control, 1DP / SEPTTR disease control, 3DC / SEPTTR 1DP disease control rating, HV activity / SEPTTR 3DC disease control rating, HV activity / SEPTTR 3DC, LV activity at 125.1 g/H (% Control rating) / SEPTTR 1DP, LV activity at 125.1 g/H (% Control rating) / SEPTTR 1DP disease control rating, LV activity at 125.1 g/H / SEPTTR 3DC disease control rating, LV activity at 125.1 g/H / SEPTTR 3DC disease control rating, HV activity at 100 ppm / SEPTTR 1DP disease control rating, HV activity at 100 ppm / HV activity at 100 ppm SEPTTR 3DC (disease control rating) / HV activity at 100 ppm SEPTTR 1DP (disease control rating) / LV activity at 125.1 g/H SEPTTR 1DP (disease control rating) / LV activity at 125.1 g/H SEPTTR 3DC (disease control rating): A: > 80; B: ≤ 80; C: Not Tested; D: No Activity Observed in the Reported Assay; conditions: high volume application, 100 ppm; for SEPTTR 1DP disease control rating, HV activity at 100 ppm: 1 day protectant; for SEPTTR 3DC disease control rating, HV activity at 100 ppm: 3 day curative

| Compound | PUCCRT 1DP disease control rating, HV activity at 100 ppm (Puccinia triticina) | PUCCRT 3DC disease control rating, HV activity at 100 ppm (Puccinia triticina) | SEPTTR 1DP disease control rating, HV activity at 100 ppm (Zymoseptoria tritici) | SEPTTR 3DC disease control rating, HV activity at 100 ppm (Zymoseptoria tritici) |
| --- | --- | --- | --- | --- |
| CC[C@H](OC(=O)[C@H](C)NC(=O)c1nccc(OC)c1O)[C@H](Oc1ccccc1)C(C)C [Cmpd 815] | A (> 80) | A (> 80) | B (≤ 80) | D |
| COc1ccnc(C(=O)N[C@@H](C)C(=O)O[C@@H](C)[C@H](OCC2CC2)C2CCCCC2)c1O [Cmpd 816] | A (> 80) | B (≤ 80) | B (≤ 80) | B (≤ 80) |
| COc1ccnc(C(=O)NC(C)C(=O)OC(C)C(Oc2ccc(Cl)cc2Cl)c2ccccc2)c1O (stereo not drawn) [Cmpd 817] | A (> 80) | A (> 80) | A (> 80) | B (≤ 80) |
| COc1ccnc(C(=O)NC(C)C(=O)OC(C)C(Oc2ccccc2)c2ccccc2)c1O (stereo not drawn) [Cmpd 818] | A (> 80) | D | A (> 80) | A (> 80) |
| COc1ccnc(C(=O)NC(C)C(=O)OC(C)C(OCC(C)C)c2ccccc2)c1O (stereo not drawn) [Cmpd 819] | D | B (≤ 80) | B (≤ 80) | D |
| COc1ccnc(C(=O)NC(C)C(=O)OC(C)C(OCC(C)C)c2ccccc2)c1O (stereo not drawn) [Cmpd 820] | A (> 80) | A (> 80) | A (> 80) | A (> 80) |
| CCCOC(c1ccccc1)C(C)OC(=O)C(C)NC(=O)c1nccc(OC)c1O (stereo not drawn) [Cmpd 821] | A (> 80) | A (> 80) | B (≤ 80) | B (≤ 80) |
| COc1ccnc(C(=O)NC(C)C(=O)OC(C)C(OC)c2ccccc2)c1O (stereo not drawn) [Cmpd 823] | B (≤ 80) | A (> 80) | D | B (≤ 80) |
| COc1ccnc(C(=O)NC(C)C(=O)OC(C)C(OCC2CC2)c2ccccc2)c1O (stereo not drawn) [Cmpd 825] | A (> 80) | A (> 80) | B (≤ 80) | B (≤ 80) |
| COc1ccnc(C(=O)NC(C)C(=O)OC(C)C(OCC2CC2)C23CC4CC(CC(C4)C2)C3)c1O (stereo not drawn) [Cmpd 827] | A (> 80) | D | B (≤ 80) | D |
| COc1ccnc(C(=O)NC(C)C(=O)OC(C)C(OC)C23CC4CC(CC(C4)C2)C3)c1O (stereo not drawn) [Cmpd 829] | B (≤ 80) | D | D | D |
| COc1ccnc(C(=O)NC(C)C(=O)OC(C)(C)C(Oc2ccccc2)C(C)C)c1O (stereo not drawn) [Cmpd 831] | B (≤ 80) | D | D | D |
| COc1ccnc(C(=O)NC(C)C(=O)OC(C)C(Oc2ccccc2)c2ccc(-c3ccccc3)cc2)c1O (stereo not drawn) [Cmpd 833] | A (> 80) | B (≤ 80) | A (> 80) | B (≤ 80) |
| COc1ccnc(C(=O)NC(C)C(=O)OC(C)(C)[C@H](Oc2ccccc2)C(C)C)c1O (stereo partly drawn) [Cmpd 835, (R)-2,4-dimethyl-3-phenoxypentan-2-yl 2-(3-hydroxy-4-methoxypicolinamido)propanoate] | A (> 80) | A (> 80) | D | B (≤ 80) |
| COc1ccnc(C(=O)NC(C)C(=O)OC(C)C(Oc2ccccc2)C2CCCCC2)c1O (stereo not drawn) [Cmpd 836] | A (> 80) | A (> 80) | A (> 80) | A (> 80) |
| COc1ccnc(C(=O)NC(C)C(=O)OC(C)C(Oc2ccc(F)cc2)c2ccccc2)c1O (stereo not drawn) [Cmpd 837] | A (> 80) | A (> 80) | A (> 80) | A (> 80) |
| COc1ccnc(C(=O)N[C@@H](C)C(=O)O[C@@H](C)[C@H](Oc2cccc(F)c2)C2CCCC2)c1O [Cmpd 839] | A (> 80) | A (> 80) | B (≤ 80) | B (≤ 80) |
| COc1ccnc(C(=O)N[C@@H](C)C(=O)O[C@@H](C)[C@H](Oc2ccc(F)cc2)C2CCCC2)c1O [Cmpd 840] | A (> 80) | A (> 80) | B (≤ 80) | A (> 80) |
| COc1ccnc(C(=O)N[C@@H](C)C(=O)O[C@@H](C)[C@H](Oc2cccc(Cl)c2)C2CCCC2)c1O [Cmpd 841, (S)-(1R,2S)-1-(3-chlorophenoxy)-1-cyclopentylpropan-2-yl-2-(3-hydroxy-4-methoxypicolinamido)propanoate] | A (> 80) | A (> 80) | A (> 80) | A (> 80) |
| COc1ccnc(C(=O)N[C@@H](C)C(=O)O[C@@H](C)[C@H](Oc2ccc(Cl)cc2)C2CCCC2)c1O [Cmpd 842] | A (> 80) | A (> 80) | A (> 80) | B (≤ 80) |
| COc1ccnc(C(=O)N[C@@H](C)C(=O)O[C@@H](C)[C@H](Oc2ccc(C)cc2Cl)C2CCCC2)c1O [Cmpd 843, (S)-(1R,2S)-1-(2-chloro-4-methylphenoxy)-1-cyclopentylpropan-2-yl-2-(3-hydroxy-4-methoxypicolinamido)propanoate] | D | D | D | B (≤ 80) |
| COc1ccnc(C(=O)N[C@@H](C)C(=O)O[C@@H](C)[C@H](OCC(C)C)C2CCCC2)c1O [Cmpd 844] | A (> 80) | A (> 80) | B (≤ 80) | A (> 80) |
| COc1ccnc(C(=O)N[C@@H](C)C(=O)O[C@@H](C)[C@H](OCC2CC2)C2CCCC2)c1O [Cmpd 845, (S)-(1R,2S)-1-cyclopentyl-1-(cyclopropyl-methoxy)propan-2-yl-2-(3-hydroxy-4-methoxypicolinamido)propanoate] | A (> 80) | A (> 80) | B (≤ 80) | B (≤ 80) |
| COc1ccnc(C(=O)N[C@@H](C)C(=O)O[C@@H](C)[C@H](Oc2ccc(C)cc2)C2CCCC2)c1O [Cmpd 846, (S)-(1R,2S)-1-cyclopentyl-1-(p-tolyloxy)propan-2-yl-2-(3-hydroxy-4-methoxypicolinamido)propanoate] | A (> 80) | A (> 80) | B (≤ 80) | B (≤ 80) |
